According to patent publication US12291529B2, “Heterocyclic GLP-1 agonists” (Gasherbrum Bio, Inc., priority 2023, dated 2025):
pEC50: −log10 of the molar value. In brackets after ≈: the same amount, converted by molar mass.

How the values were obtained:
GLP-1 Receptor = GLP-1 Receptor (Homo sapiens, UniProt P43220); assay: GLP-1R agonist cAMP stimulation assay (HEK293/GLP1R/CRE-LUC cells, Cisbio cAMP dynamic 2 kit); format: cell-based
Method in brief: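 cAMP was measured by HTRF (d2/cryptate, 1 h RT, 665 and 615 nm). Beforehand, compounds in half-log series were incubated 30 min at 37 °C with GLP-1R/CRE-Luc HEK293 cells (1000 per well) in IBMX (0.5 mM)-containing DPBS/BSA. Activity scaled between vehicle and maximal control.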

[1] = Caco-2 permeability / efflux study; format: in vitro ADME; conditions: human; for Papp at 2 h, 10 μM: Caco-2, pH 7.4, 10 μM, 37° C., pH 7.4, 0.5% BSA, read-out: Caco-2 Perm; for efflux ratio at 2 h, 10 μM: Caco-2, pH 7.4, Caco-2 efflux ratio
Description: Incubations with Caco-2 cell monolayers were performed in duplicate in a 96-well Transwell plate. Transport buffer solution (HBSS, 10 mM HEPES, pH 7.4, with 0.5% BSA) containing test article (10 μM), and either the control compounds metoprolol (10 μM), cimetidine (10 μM) and erythromycin (10 μM), was added to appropriate donor wells of the apical or basolateral plate. The transport buffer with DMSO was added to appropriate wells of receiver wells. Following incubation at 37° C. for 2 hours, the cell plates were removed and 50 μL samples from both apical and basolateral sides were transferred into new 96-well plates. Subsequently, 200 μL of acetonitrile containing internal standard was added to all samples to precipitate protein prior to analysis by UPLC-MS/MS. Lucifer yellow was used as a marker to confirm the integrity of the cell monolayers after 2 hours incubation.

FaSSIF solubility = format: physicochemical; conditions: FaSSIF buffer, 25 °C, fassif, thermodynamic from solid
Description: Stock solution of test article and control compound (chlorpromazine, astemizole, and phenytoin) were prepared in DMSO at 10 mM. 50 μL each of stock solutions were dried down, followed by reconstitution to 1 mM with FaSSIF buffer in the well. The incubation plate was shaked at 25° C., 1,100 rpm for 4 hours. And then, the samples were filtered by using the vacuum manifold. 10 μL aliquots from each well was transferred to a new 96-well plate and adjust the volume to 80 μL with blank buffer. Using a mixture of H2O and acetonitrile containing internal standard (1:1) to dilute the sample 100-fold, 500-fold and 2,500-fold. The samples are evaluated by LC/MS/MS analysis. All compounds were tested in singlet.

[2] = Rat IV/PO PK study, Method A; format: in vivo, male Sprague Dawley (SD) rats; conditions: for AUC (ng · h/mL)_free form/dose / AUC / Cmax: PO; for AUC (ng · h/mL)_free form/dose: 5 mpk, free form; for half-life / bioavailability / AUC / Cmax: male, Sprague Dawley, plasma; for half-life: 1 mg/kg, elimination half life (IV); for half-life / bioavailability: Method A; for bioavailability: PO vs IV, read-out: Bioavailablility (% F); for AUC / Cmax: *obtained under method 3A
Description: Pharmacokinetics (PK) study was conducted on male Sprague Dawley (SD) rats by two delivery routes intravenous (IV) and/or oral gavage (PO). Rats in IV route (n=3) were free access to food and water. Rats in PO route (n=3) were fasted overnight and fed at 4 hrs post dosing. Test article was formulated in solution (10% solutol HS 15 in saline) for IV route and solution or suspension (10% solutol HS 15 in saline/water) for PO route, respectively. On the day of experiment, test article was administered via vein (e.g. foot dorsal vein) injection (commonly at 1 mg/kg and 5 mL/kg) for IV route or via oral gavage (commonly at 2 or 5 mg/kg and 5 mL/kg) for PO route, respectively. Blood samples were collected via serial bleeding at ˜8 time points from 0.083 to 24 hrs post dose. Approximate 150 μL of blood/time point was collected into K2EDTA tube via tail vein or jugular vein. Blood samples were put on wet ice and centrifuged to obtain plasma samples and plasma samples were submitted to LC-MS/MS for sample analysis. Pharmacokinetics parameters, including elimination half life (t1/2) (IV), area under the curve (AUC) and oral bioavailability (F %), etc. were calculated by non-compartmental model using WinNonlin.

[3] = Rat PO PK study, Method B; format: in vivo, male Sprague Dawley (SD) rats; conditions: for rat PK dose proportionality of exposure: free form, same formulation; for AUC / Cmax: male, Sprague Dawley, plasma
Description: Pharmacokinetics (PK) study was conducted on male Sprague Dawley (SD) rats by oral gavage (PO). Rats in PO route (n=3) were free access to food and water. […] On the day of experiment, test article was administered via oral gavage (commonly at 10, 30, or 100 mg/kg, with dose volume as 10 mL/kg). Blood samples were collected via serial bleeding at ˜8 time points from 0.25 to 24 hrs post dose. Approximate 150 μL of blood/time point was collected into KzEDTA tube via tail vein or jugular vein. Blood samples were put on wet ice and centrifuged to obtain plasma samples and plasma samples were submitted to LC-MS/MS for sample analysis. Pharmiacokinetics parameters, including Cmax, and area under the curve (AUC), etc. were calculated by non-compartmental model using WinNonlin.

[4] = Table 3, HEK293/GLP1R/CRE-LUC cells, 30 min
[5] = 30 mg/kg, 20% solutol HS 15 in water
[6] = 100 mg/kg, 20% solutol HS 15 in water

Sequence of GLP-1 Receptor (P43220 24-463, species assumed): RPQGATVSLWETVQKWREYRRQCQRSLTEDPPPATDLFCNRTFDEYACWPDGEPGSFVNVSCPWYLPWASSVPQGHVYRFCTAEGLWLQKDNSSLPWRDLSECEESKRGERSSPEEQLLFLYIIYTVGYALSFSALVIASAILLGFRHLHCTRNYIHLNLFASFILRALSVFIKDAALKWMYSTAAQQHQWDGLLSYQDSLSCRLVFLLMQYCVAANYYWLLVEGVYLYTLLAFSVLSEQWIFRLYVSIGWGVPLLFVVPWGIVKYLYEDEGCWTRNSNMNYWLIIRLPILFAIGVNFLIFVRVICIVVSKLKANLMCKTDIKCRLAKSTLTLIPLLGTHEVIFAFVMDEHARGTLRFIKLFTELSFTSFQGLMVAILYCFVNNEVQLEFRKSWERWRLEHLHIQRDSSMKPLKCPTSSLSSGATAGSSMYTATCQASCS

Row | Compound | pEC50 (GLP-1 Receptor; [4]) | pEC50 (GLP-1 Receptor; Table 4) | Papp at 2 h, 10 μM [1] [nm/s] | efflux ratio at 2 h, 10 μM [1] | solubility at 4 h (FaSSIF solubility) [µM] | other results
1 | CN=S(C)(=O)c1ccc(-n2ccn(-c3c4c(nn3-c3cc(C)c(F)c(C)c3)CCN(C(=O)c3cc5cc(C6CCOCC6)ccc5n3[C@@]3(c5noc(=O)[nH]5)C[C@@H]3C)[C@H]4C)c2=O)cc1 (single isomer, unassigned) [Compound 121] | 10.72 | 10.82 | 1 | 90.8 | 7.3 (≈ 6.38 µg/mL) | 
2 | CCS(=O)(=NC)c1ccc(-n2ccn(-c3c4c(nn3-c3cc(C)c(F)c(C)c3)CCN(C(=O)c3cc5cc(C6CCOCC6)ccc5n3[C@@]3(c5noc(=O)[nH]5)C[C@@H]3C)[C@H]4C)c2=O)cc1 (single isomer, unassigned) [Compound 144] | 10.77 | 10.77 | 3.6 | 24.1 | 2.56 (≈ 2.27 µg/mL) | 
3 | CCS(=O)(=NC)c1ccc(-n2ccn(-c3c4c(nn3-c3cc(C)c(F)c(C)c3)CCN(C(=O)c3cc5cc(C6CCOCC6)ccc5n3[C@@]3(c5noc(=O)[nH]5)C[C@@H]3C)[C@H]4C)c2=O)c(F)c1 (single isomer, unassigned) [Compound 149] | 10.64 | 10.64 | 3.3 | 26 | 2.04 (≈ 1.85 µg/mL) | AUC (ng · h/mL)_free form/dose [2]: 4,276/5 mpk ng · h/mL; half-life [2]: 1.6 h; bioavailability [2]: 32%
4 | CCS(=O)(=NC)c1ccc(-n2ccn(-c3c4c(nn3-c3cc(C)c(F)c(C)c3)CCN(C(=O)c3cc5cc([C@H]6CCOC(C)(C)C6)ccc5n3[C@@]3(c5noc(=O)[nH]5)C[C@@H]3C)[C@H]4C)c2=O)c(F)c1 (single isomer, unassigned) [Compound 164] | 10.62 | 10.62 | 6.2 | 5.5 | 8.9 (≈ 8.31 µg/mL) | AUC (ng · h/mL)_free form/dose [2]: 6,094/5 mpk ng · h/mL; half-life [2]: 2.4 h; bioavailability [2]: 29.4%; AUC ([2]; 5 mg/kg): 9.54 µg·h/mL; Cmax ([2]; 5 mg/kg): 1.88 µg/mL; rat PK exposure compared with C-5 and C-6 ([3]; 5 to 100 mg/kg): higher exposure than C-5 and C-6; rat PK dose proportionality of exposure [3]: good rat PK dose proportionality from 5 to 100 mg/kg; AUC [3, 5]: 66.2 µg·h/mL; Cmax [3, 5]: 5.4 µg/mL; AUC [3, 6]: 173 µg·h/mL; Cmax [3, 6]: 11.2 µg/mL
5 | CN=S(=O)(c1ccc(-n2ccn(-c3c4c(nn3-c3cc(C)c(F)c(C)c3)CCN(C(=O)c3cc5cc([C@H]6CCOC(C)(C)C6)ccc5n3[C@@]3(c5noc(=O)[nH]5)C[C@@H]3C)[C@H]4C)c2=O)c(F)c1Cl)C1CC1 (single isomer, unassigned) [Compound 214] | 10.48 | 10.48 | 3.4 | 11.4 | 9.9 (≈ 9.71 µg/mL) | 
6 | CCS(=O)(=NC)c1ccc(-n2ccn(-c3c4c(nn3-c3cc(C)c(F)c(C)c3)CCN(C(=O)c3cc5cc([C@H]6CCOC(C)(C)C6)ccc5n3[C@@]3(c5noc(=O)[nH]5)C[C@@H]3C)[C@H]4C)c2=O)c(F)c1C (single isomer, unassigned) [Compound 216] | 10.19 | 10.17 | 3.2 | 15.7 | 7.9 (≈ 7.49 µg/mL) | 
7 | CN=S(=O)(c1ccc(-n2ccn(-c3c4c(nn3-c3cc(C)c(F)c(C)c3)CCN(C(=O)c3cc5cc(C6CCOCC6)ccc5n3[C@@]3(c5noc(=O)[nH]5)C[C@@H]3C)[C@H]4C)c2=O)c(F)c1)C1CC1 (single isomer, unassigned) [Compound 221] | 10.52 | 10.51 | 3.4 | 38.5 | 4.05 (≈ 3.72 µg/mL) | 
8 | CCS(=O)(=O)c1ccc(-n2ccn(-c3c4c(nn3-c3cc(C)c(F)c(C)c3)CCN(C(=O)c3cc5cc(C6CCOCC6)ccc5n3[C@@]3(c5noc(=O)[nH]5)C[C@@H]3C)[C@H]4C)c2=O)cc1 [Compound C-1, reference compound] |  | 10.66 | 1.26 | 51.7 | 4 (≈ 3.5 µg/mL) | 
9 | Cc1cc(-n2nc3c(c2-n2ccn(-c4ccc(S(=O)(=O)C5CC5)cc4)c2=O)[C@H](C)N(C(=O)c2cc4cc(C5CCOCC5)ccc4n2[C@@]2(c4noc(=O)[nH]4)C[C@@H]2C)CC3)cc(C)c1F [Compound C-2, reference compound] |  | 10.37 | < 0.5 | > 62.6 | 9.3 (≈ 8.25 µg/mL) | 
10 | Cc1cc(-n2nc3c(c2-n2ccn(-c4ccc(N5CCCS5(=O)=O)cc4)c2=O)[C@H](C)N(C(=O)c2cc4cc(C5CCOCC5)ccc4n2[C@@]2(c4noc(=O)[nH]4)C[C@@H]2C)CC3)cc(C)c1F [Compound C-4, reference compound] |  | 9.85 | 1.8 | 16.7 | 5.38 (≈ 4.85 µg/mL) | 
11 | Cc1cc(-n2nc3c(c2-n2ccn(-c4ccc5c(cnn5C)c4F)c2=O)[C@H](C)N(C(=O)c2cc4cc([C@H]5CCOC(C)(C)C5)ccc4n2[C@@]2(c4noc(=O)[nH]4)C[C@@H]2C)CC3)cc(C)c1F [Compound C-5, reference compound] |  |  | 2.1 |  | 0.4 (≈ 0.353 µg/mL) | half-life [2]: 8.1 h; bioavailability [2]: 36%; AUC ([2]; 2 mg/kg): 4.4 µg·h/mL; Cmax ([2]; 2 mg/kg): 0.573 µg/mL; rat PK dose proportionality of exposure [3]: plateaued at 10 mg/kg; AUC ([3]; 10 mg/kg, 10% solutol HS 15): 14.5 µg·h/mL; Cmax ([3]; 10 mg/kg, 10% solutol HS 15): 1.25 µg/mL; AUC ([3]; 30 mg/kg, 10% solutol HS 15): 13 µg·h/mL; Cmax ([3]; 30 mg/kg, 10% solutol HS 15): 1.01 µg/mL
